In patent US20110045101A1, “FUNGICIDAL SUBSTITUTED AZOLES” (E.I. Du Pont De Nemours and Company, priority 2009, published 2011):
Marks after values point to notes of the source that are not given here.

Tests used:
Type in all cases: in vivo
Settings in all cases: 100 = 100% disease control
[1] = system: Puccinia recondita f. sp. tritici; experiment: Test H: wheat leaf rust, test suspension sprayed after inoculation of wheat seedlings, visual disease rating
Procedure, shortened: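 Wheat seedlings inoculated with P. recondita spores, held 24 h saturated at 20 °C, then 2 days in growth chamber at 20 °C; compound suspension (acetone/water with Trem 014) sprayed to run-off afterwards. Rated visually; 200 ppm (≈500 g/ha) unless marked *, which denotes 40 ppm.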

[2] = system: Erysiphe graminis f. sp. tritici; experiment: Test J: wheat powdery mildew on wheat seedlings, sprayed the day before inoculation, visual disease rating
Procedure, shortened: (§1)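 Acetone solution (3% of final volume) of each compound is suspended in 50/50 acetone/water with 250 ppm Trem® 014. Plants are sprayed to run-off at 200 ppm, equivalent to 500 g/ha, or at 40 ppm for starred values.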

[3] = system: Alternaria solani; experiment: Test D: tomato early blight, sprayed the day before inoculation, visual disease rating
Procedure, shortened: as §1

[4] = system: Botrytis cinerea; experiment: Test C: tomato Botrytis on tomato seedlings, sprayed the day before inoculation, visual disease rating
Procedure, shortened: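 Disease ratings refer to tomato seedlings treated by run-off spraying with compound suspensions, mostly 200 ppm (500 g/ha equivalent) and in marked cases 40 ppm. Carrier: acetone/purified water 50/50 with 250 ppm polyhydric alcohol ester surfactant, after predissolving in acetone.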

[5] = system: Puccinia recondita f. sp. tritici; experiment: Test I: wheat leaf rust on wheat seedlings, sprayed the day before inoculation, visual disease rating
Procedure, shortened: as §1

[6] = system: Septoria tritici; experiment: Test G: wheat leaf blotch on wheat seedlings, sprayed the day before inoculation, visual disease rating
Procedure, shortened: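 Compounds dissolved in acetone (3% of final volume), then suspended in 50/50 acetone/water with 250 ppm Trem® 014 and sprayed to run-off on seedlings at 200 ppm (≈500 g/ha) or 40 ppm where marked. Inoculation with spores followed next day; visual rating after 48 h saturated at 24° C plus 19 days at 20° C.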

[7] = system: Septoria nodorum; experiment: Test F: wheat glume blotch on wheat seedlings, sprayed the day before inoculation, visual disease rating
Procedure, shortened: as §1

[8] = 200 ppm, 0 = no control relative to controls

| Compound | Test H disease control rating [1, 8] [%] | Test J disease control rating [2, 8] [%] | Test D disease control rating [3, 8] [%] | Test C disease control rating [4, 8] [%] | Test I disease control rating [5, 8] [%] | Test G disease control rating [6, 8] [%] | Test F disease control rating [7, 8] [%] | also measured |
| --- | --- | --- | --- | --- | --- | --- | --- | --- |
| COc1cc(F)c(-c2c(C)nc(Cl)n2-c2ccc(C(F)(F)F)nc2)c(F)c1 [compound 732] | 0 | 100 | 100 | 100 | 99 | 99 | 100 |  |
| N#Cc1ccc(F)c(-c2c(Cl)nc(Cl)n2-c2ccc(Cl)cc2)c1F [compound 407] | 0 | 98 | 0 | 100 | 97 | 96 | 92 |  |
| COc1ccc(F)c(-c2c(Br)ncn2-c2ccc(C)cc2)c1F [compound 473] | 0 | 100 | 100 | 99 | 100 | 97 | 0 |  |
| COc1cc(F)c(-c2c(Cl)nc(Cl)n2-c2cncc(Br)c2)c(F)c1 [compound 678] | 100 | 100 | 100 | 100 | 100 | 99 | 100 |  |
| CN(C)c1ncn(Cc2cccc(Cl)c2)c1-c1ccc(Cl)cc1 [compound 273] |  |  |  |  |  |  |  | Test H disease control rating ([1]; 200 ppm, 0 = no control): 46%; Test J disease control rating ([2]; 200 ppm, 0 = no control): 0%; Test D disease control rating ([3]; 200 ppm, 0 = no control): 0%; Test C disease control rating ([4]; 200 ppm, 0 = no control): 63%; Test I disease control rating ([5]; 200 ppm, 0 = no control): 41%; Test G disease control rating ([6]; 200 ppm, 0 = no control): 13%; Test F disease control rating ([7]; 200 ppm, 0 = no control): 0% |
| Fc1cccc(-n2cnc(Cl)c2-c2c(F)ccc(F)c2F)c1 [compound 364] | 0 | 83 | 100 | 100 | 98 | 58 | 0 |  |
| COc1cc(OC)cc(-n2c(C)nc(Br)c2Cc2c(F)cc(F)cc2F)c1 [compound 535] | 0 | 0 | 0 | 0 | 0 | 2 | 0 |  |
| Fc1cc(-n2c(Cl)nc(Br)c2-c2c(F)ccc(F)c2Cl)ccc1Cl [compound 463] |  |  |  |  |  |  |  | Test H disease control rating ([1]; 40 ppm (marked *)): 0* %; Test J disease control rating ([2]; 40 ppm (marked *)): 99* %; Test D disease control rating ([3]; 40 ppm (marked *)): 99* %; Test C disease control rating ([4]; 40 ppm (marked *)): 99* %; Test I disease control rating ([5]; 40 ppm (marked *)): 100* %; Test G disease control rating ([6]; 40 ppm (marked *)): 95* %; Test F disease control rating ([7]; 40 ppm (marked *)): 0* % |
| COc1cc(F)c(-c2c(Cl)nc(CO)n2-c2ccc(F)cc2)c(F)c1 [Compound 298, 4-chloro-5-(2,6-difluoro-4-methoxyphenyl)-1-(4-fluorophenyl)-1H-imidazole-2-methanol] |  |  |  |  |  |  |  | pest or weed control at 200 ppm ([1]; Puccinia recondita, 96 h, 200 ppm, 0 = no control relative to controls): 0%; pest or weed control at 200 ppm ([2]; Blumeria graminis, 168 h, 200 ppm, 0 = no control relative to controls): 0%; pest or weed control at 200 ppm ([3]; Alternaria solani, 168 h, 200 ppm, 0 = no control relative to controls): 100%; pest or weed control at 200 ppm ([4]; Botrytis cinerea, 120 h, 200 ppm, 0 = no control relative to controls): 100%; pest or weed control at 200 ppm ([5]; Puccinia recondita, 168 h, 200 ppm, 0 = no control relative to controls): 98%; pest or weed control at 200 ppm ([6]; Zymoseptoria tritici, 504 h, 200 ppm, 0 = no control relative to controls): 96%; pest or weed control at 200 ppm ([7]; Parastagonospora nodorum, 264 h, 200 ppm, 0 = no control relative to controls): 0% |
| Fc1cc(-n2c(Cl)nc(CCl)c2-c2cncc(Br)c2)ccc1Cl [compound 355] | 0 | 0 | 0 | 0 | 28 | 3 | 0 |  |
| COc1cc(F)c(-c2c(Cl)nc(Cl)n2-c2ccc(Cl)nc2Cl)c(F)c1 [compound 674] | 98 | 94 | 93 | 99 | 100 | 99 | 98 |  |
